In patent US8039501B2, “Synephrine derivatives useful as anti-inflammatory agents” (Universiteit Gent, priority 2005, dated 2011):

How the values were obtained:
[1] = tested on: L363 cell line; assay: MTT test, cell viability of L363 cells; type: cell-based, human; conditions: Homo sapiens, L-363; 10^−4 M; 10% FCS; FIG. 3B; read-out: Block of L363 cell viability
Protocol: The MTT test is a standard assay addressing cell toxicity of a compound. It is based on the principle that after 3-4 hours of cell incubation with MTT (3-(4,5-dimethylthiazole-2-yl)-2,5-diphenyl tetrazolium bromide) so-called purple formazan crystals develop in living and early apoptotic cells. Dead cells don't produce formazan crystals.
Different cell lines were tested. Unless indicated differently, A549 human lung epithelial cells (derived from lung carcinoma) and L929sA murine fibroblast cells were cultured in DMEM with 10% FCS, 100 U/ml penicillin and 100 μg/ml streptomycin. Unless indicated differently, the human multiple myeloma cell lines L363, U266 and MM1.S were cultured in RPMI 1640 with Glutamax-I, supplemented with 10% FCS, 100 U/ml penicillin and 100 μg/ml streptomycin. Cells were seeded at 5000 cells/well (for adherent A549 and L929sA cells) or at 10000 cells/well (for the multiple myeloma lines in suspension) in 96 well plates. Cells were incubated in the presence of the respective synephrine compounds or vehicle (EtOH; for control test) in a final volume of 0.2 ml for 24 or 48 hours at 37° C. Subsequently, 20 μl of MTT solution (5 mg/ml in phosphate-buffered saline) was added to each well. After 4 hours incubation at 37° C., 80 μl of the extraction buffer (10% SDS, 0.01 M HCl) was added. After overnight incubation at room temperature, the optical densities at 590 nm were measured. Results are illustrated in FIGS. 2 to 6 and are expressed as percentage of viable cells as compared to vehicle-treated controls.
The MTT test was further extended to include alternative synephrine derivatives and a range of multiple myeloma cell lines for which the results are illustrated by FIGS. 3A, 3B and 4A. Human multiple myeloma cell lines L363, U266 and MM1.S were cultured in RPMI 1640 with Glutamax-I, supplemented with 10% FCS, 100 U/ml penicillin and 100 μg/ml streptomycin. Cells were seeded at 10000 cells/well in 96 well plates. Cells were incubated in the presence of test compounds or vehicle in a final volume of 0.2 ml for 24 or 48 hours at 37° C. The test compounds included in the test were the synephrine derivatives CpdA, Naphth, Benz and Isobut, and DEX as a comparative example. Subsequently, 20 μl of MTT solution (5 mg/ml in phosphate-buffered saline) was added to each well. After 4 hours incubation at 37° C., 80 μl of the extraction buffer (10% SDS, 0.01 M HCl) was added. After 48 hours incubation at room temperature, the optical densities at 590 nm were measured. Results are expressed as percentage of viable cells as compared to vehicle-treated controls.

[2] = tested on: MCF7 breast cancer cells; assay: Human Cancer Pathway Finder GEarray hybridization, MCF7 cells; type: cell-based; conditions: 10^−5 M
Protocol: mRNA of MCF7 breast cancer cells left untreated or treated with CpdA was analyzed for variation in gene expression by means of RNase protection analysis and nylon arrayfilter hybridization (SuperArray filters i.e. cancer pathway finder and stress and toxicity pathway array). From these experiments it can be derived that the synephrine analogues show a unique gene expression profile with respect to target genes involved in apoptosis, cell cycle, metastasis, angiogenesis, stress responses, and the like. At the same time, the synephrine analogue-induced gene expression prophile is distinct from the gene expression response observed with classical glucorticoids.
For the total RNA extraction, 10^5 cell were homogenized in 1 ml of TRIzol Reagent (GIBCO BRL), incubated 5 minutes at room temperature; then added 200 μl chloroform, vortexed 15 seconds. Mix was incubated on ice for 5 minutes. Phase separation was done by centrifugation at 12000 rpm for 15 minutes at 4° C. […]
Membranes were washed twice with 5 ml of pre-warmed wash solution 2×SSC, 1% SDS for 10 minutes at 68° C. with agitation at 30-40 rpm/minute. […] Visualization and quantitation of radioactive bands was carried out by a Phosphorlmager and scanned using a bioimaging analyzer (Personal Molecular Imager® FX Bio-Rad). Densitometry analysis of autoradiograms was performed using Quantity One (Bio-Rad). […]

How did the cytotoxicity at 100 µM [1] turn out when `CNCC(Cl)c1ccc(OC(C)=O)cc1.Cl` (centres unmarked) [CpdA, 2-(4-acetoxyphenyl)-2-chloro-N-methyl-ethylammonium chloride] was run?
The cytotoxicity at 100 µM was 50%.

What about the “Expression of cancer target genes TP53, TNFRSF12, MAP2K1, RAF, ITGA6, NCAM, PDGF, MMP9, MTA1, TIMP1” value [2] of the same compound?
The value was “represses”.
